From article PMC11393453, “Phosphorylation of tau at a single residue inhibits binding to the E3 ubiquitin ligase, CHIP” (Nature Communications, 2024)

Key:
endogenous CHIP = experiment: Co-immunoprecipitation of endogenous CHIP with GFP-tau proteoforms; type: cell-based; conditions: Fig 3E
Protocol: Fig. 3 TauC3 Ser416 phosphorylation regulates CHIP-dependent tau homeostasis. A In vitro ubiquitination of tau proteoforms by CHIP. Samples were collected at the denoted timepoints, quenched in SDS-PAGE loading buffer, and analyzed by western blot. B Quantification of unmodified tau remaining following in vitro ubiquitination of varying tau proteoforms by CHIP. Unmodified tau remaining was analyzed by densitometry, normalized to 0-min time point, and curves were fit using one-phase exponential decay (n = 3 technical replicates). C Cartoon schematic depicting promoter architecture and varying C-terminal sequences for HEK293 FlpIn T-Rex cells expressing doxycycline inducible GFP-tau proteoforms. D Representative fluorescence micrographs for GFP-tau cells. Images show tau species associated with microtubules (green, false color), while nuclei are stained with Hoechst 33342 (blue, false color). Scale bar = 30 µm. Images are representative of three separate acquisitions. E Co-immunoprecipitation assay following IP of varying tau species from cells. Whole cell lysate (input) was used for loading controls, and co-immunoprecipitated CHIP was analyzed by western blot. Experiment was repeated in duplicate. F Representative western blot showing differing abundance of various tau proteoforms in HEK293 FlpIn T-Rex cells. Experiment was repeated in duplicate. G Quantification of tau protein abundance taken from three independent biological experiments. Tau:tubulin ratio was determined by densitometry and normalized to full-length tau. Error bars represent SD. Statistical significance was determined by one-way ANOVA with Tukey’s post hoc analysis. H Quantification of MAPT mRNA from three independent biological experiments. MAPT mRNA was normalized to GAPDH and shown relative to full-length tau. Error bars represent SD. Statistical significance was determined by one-way ANOVA with Tukey’s post hoc analysis.
Cells were washed once in 1X Dulbecco’s Phosphate Buffered Saline (D-PBS) and lysed in ice cold Pierce Immunoprecipitation (IP) lysis buffer (25 mM Tris-HCl pH 7.4, 150 mM NaCl, 1 mM EDTA, 1% NP-40). Lysates were collected by scraping, transferred to 1.5 mL microcentrifuge tubes, and incubated on ice for 15 min. […] Relative protein concentrations were determined by bicinchoninic acid assay (Pierce), and samples were normalized to the lowest protein concentration. […]
For tau immunoprecipitations, an aliquot (30 µL) of Protein A/G PLUS-agarose (Santa Cruz Biotech) per condition was collected and washed twice in ice cold IP lysis buffer. […] Inputs and eluates were subsequently analyzed by SDS-PAGE followed by western blotting. Quantification was performed by densitometry analysis in ImageJ (NIH).

CHIP = experiment: NanoBiT live cell PPI assay (CHIP-tau split luciferase); type: cell-based; conditions: Fig 1B, normalized to FL tau with vehicle, 30nM OA
Protocol: Fig. 1 Phosphorylation of tauC3 inhibits interaction with CHIP. A Cartoon schematic of the live-cell NanoBiT assay for measuring CHIP-tau PPIs (NanoBiT PDB = 7SNX; CHIP PDB = 2C2L). B Results of NanoBiT assays for CHIP interactions with tau proteoforms following treatment with okadaic acid (30 nM, 18 h) or DMSO control. Luminescence normalized to CHIP binding to FL 0N4R tau treated with vehicle (dashed line). Error bars represent standard deviation (SD). Statistical significance was determined by two-way ANOVA with Bonferroni’s post hoc analysis (n = 3 biological replicates). CTRL = mock transfected control. C Tau proteoforms binding to immobilized CHIP measured by ELISA. Assay was performed in technical triplicate and normalized to maximum absorbance at 450 nm. D Dissociation constants derived from (C). Error bars represent SD. E In vitro ubiquitination of tau proteoforms by CHIP. Samples were collected at the denoted timepoints, quenched in SDS-PAGE loading buffer, and analyzed by western blot. Assay was performed once.
Fig. 2 Phosphorylation of tauC3 Ser416 is sufficient to inhibit interaction with CHIP. A Cartoon depicting constructs used for mapping of inhibitory phosphorylation sites by NanoBiT live cell assays. B NanoBiT live cell assay for CHIP interactions with truncated tau constructs following treatment with okadaic acid (30 nM, 18 h) or DMSO control. Data are shown as the difference between okadaic acid treated samples and vehicle control. Error bars represent SD. Statistical significance was determined by two-sided, one-way ANOVA with Tukey’s post hoc analysis (n = 3 biological replicates). C Apparent change in melting temperatures (Tmapp) for CHIP incubated with DMSO control or Hsp70 C-terminal peptides, as determined by DSF. Error bars represent SD. (n = 4 technical replicates). D DSF experiments performed and analyzed as in the previous panel, but with tauC3-derived peptides. (n = 4 technical replicates). E Competition FP experiment showing displacement of fluorescent tracer from the CHIP TPR domain by various 10-mer Hsp70 or tauC3-derived peptides. Experiments were performed in technical quadruplicate. F Inhibition constants derived from (E). Error bars represent SD. G Tau proteoforms binding to immobilized CHIP, as measured by ELISA. Assay was performed in technical triplicate and normalized to maximum absorbance at 450 nm. H Dissociation constants derived from (G). Error bars represent SD.
CHIP-substrate NanoBiT PPI assay was performed as previously described. Briefly, HEK293T cells were seeded in poly-D-lysine coated 96-well plates (Corning, flat bottom, white opaque) in Opti-MEM. Cells were transfected with 50 ng each SmBiT/LgBiT DNA using Lipofectamine 3000 (Thermo Fisher) in Opti-MEM according to the manufacturer’s instructions. Transfections were performed for 24 h, after which the media was replaced with fresh Opti-MEM containing DMSO or 30 nM okadaic acid. Cells were incubated for an additional […] at 37 °C/5% CO2 in a humidified incubator. Following this incubation, 12.5 uL 1X Nano-Glo live cell luciferase reagent (Promega) diluted in LCS buffer (Promega) was added to each well, and samples were incubated for 10 min at room temperature in the dark to allow luminescence levels to stabilize. […] Un-transfected cells were used to obtain background measurements which were subtracted from observed luminescence values.

tau: full length (FL) 0N4R splice isoform of tau, unmodified; recombinant or expressed in cells
CHIP/tau (endogenous CHIP; IntDen quantification, with induction): 1.597 | Relative Binding (endogenous CHIP; IntDen quantification, with induction, relative to tauC3): 1.645 | CHIP/Tau normalized to tauC3 (endogenous CHIP; second quantification): 0.04136 | CHIP/Tau (endogenous CHIP; second quantification, CHIP over total tau (D-8)): 0.03219 | fold change of luminescence (CHIP; replicate 1): 1.804 | fold change of luminescence (CHIP; replicate 2): 1.978 | fold change of luminescence (CHIP; replicate 3): 1.758
